According to patent publication US11865110B2, “Thrombin inhibitors, formulations, and uses thereof” (VERSEON INTERNATIONAL CORPORATION, priority 2018, dated 2024):

Experiments:
[1] = Mouse liver microsome stability; type: in vitro ADME, mouse (CD-1); conditions: pH 7.4; CD-1 mouse liver microsomes 0.5 mg/mL, NADPH, 37° C.; lower measurable bound 5
Method: In a 96-well Nunc™ plate, 1.5 μL of a 200 μM solution of the test compound in DMSO were placed in a well. This plate, the “Reaction Plate,” was then warmed to 37° C. in an oven. In a second 96-well Nunc™ plate, the “Quench Plate,” six wells were filled with 180 μL of an internal standard quench solution composed of 100 nM diclofenac in acetonitrile. These six wells correspond to the six time points for data collection: 0, 0.5, 5, 15, 30, and 60 minutes. “Assay Buffer” was prepared by combining 6.96 g potassium phosphate, dibasic, 1.36 g potassium phosphate, monobasic, and 0.30 g of magnesium chloride hexahydrate, then diluting to a final concentration of 500 mL in water and adjusting to pH 7.4, as needed. Assay Buffer was warmed to 37° C., and 12 mL were added to a 10-mg vial of NADPH. Then 300 μL of a 20 mg/mL liver microsome suspension were added to yield a 0.5 mg/mL liver microsome suspension. 300 μL of this liver microsome suspension was then added to the test compound solution in the Reaction Plate and mixed thoroughly with a pipette tip. At each time point, 30 μL of this mixture was transferred to the corresponding well of the Quench Plate. In between time points, the Reaction Plate was kept sealed and warmed in an incubator at 37° C. When the last time point had been completed, the quench plate was centrifuged at 4° C. at 1000×g for 10 minutes. Afterwards, 50 μL of the supernatant of each well was transferred to unique, corresponding wells of a 96-well Costar® plate, the “Analysis Plate,” filled with 150 μL of 50:50 acetonitrile:HyClone™ water. The Analysis Plate was then sealed with a pre-slit plate seal before analysis via an appropriate LCMS method with a 10 μL injection. The abstracted AUC data were then automatically plotted to calculate intrinsic clearance in μL/min/mg. This experiment was run alongside a positive and negative control. Due to the parameters of this procedure, one of skill in the art will appreciate that this assay has a lower measurable bound of 5 μL/min/mg; therefore, certain compounds have their clearances labeled as ≤5 μL/min/mg.

thrombin = molecular target: T1, thrombin (Homo sapiens, UniProt P00734); experiment: Human Thrombin Generation Assay (TGA); type: biochemical; conditions: concentration that reduces endogenous thrombin potential AUC by 50%; human plasma; read-out: ETP EC50
T1 construct: from tissue; host or cells: human plasma (thrombin generated in situ by tissue factor, phospholipids and CaCl2)
Method: Results for the human thrombin generation assay (TGA; not to be confused with “thermogravimetric analysis” which is used elsewhere and carries the same acronym. One of skill in the art will appreciate which meaning is intended based on context of the surrounding technical information.) were generated as follows. In a 96-well plate, 4 μL of 100, 33.3, 11.1, 3.7, 1.23, 0.41, 0.137, and 0.046 μM solutions of the test compounds in DMSO were added to sequential wells filled with 68 μL of a “TGA Working Solution.” See description of this solution as well as other relevant solutions below. The plate was incubated at room temperature for 10 minutes, whereupon 8 μL of warm “Substrate Solution” was added to each well, resulting in a 500 μM concentration of the substrate, Z-GGR-AMC (Z-Gly-Gly-Arg-7-amino-4-methylcoumarin·HCl), in each well. Fluorescence intensity data (Ex/Em 380/460 nm) collection began immediately using a Cytation™ or Synergy™ H1 96-well plate reader set to incubate the plate at 37° C. over the data collection time of 90 minutes following double-orbital shaking for a period of 4 seconds. Test compounds were measured parallel to blanks and controls, as well as to wells of the substrate in DMSO at various concentrations (2.50, 0.833, 0.278, 0.093 mM) in the buffers to generate a standard fluorescence curve. Data values were computed automatically, including the ETP EC50 value of the AUC, which is the concentration of the compound that reduces endogenous thrombin potential AUC by 50%.
The various solutions were prepared as follows. A HEPES/NaCl Assay buffer was made by combining 7.5 mL of 5M NaCl, 1.19 g 4-(2-hydroxyethyl)piperazine-1-ethanesulfonic acid (HEPES) and 230 mL of water. An “Innovin Master Solution” was made by combining 20 μL of Siemens Dade Innovin recombinant tissue factor and thromboplastin with 50 μL of 0.5 mM phospholipid-TGT acquired from DiaPharma® in 450 μL of the above HEPES/NaCl Assay buffer. This solution was then vortexed for a few seconds. Next the “Substrate Master Solution” was made by adding 3.2 mL DMSO to 100 mg of Z-GGR-AMC (Z-Gly-Gly-Arg-7-amino-4-methylcoumarin·HCl) and vortexing in a polystyrene tube. This solution was stored at −20° C. A “TGA Working Solution” was prepared by adding 6.2 mL of human plasma, 50 μL of the Innovin Master Solution, and 80 μL of phospholipids to 2.6 mL of HEPES/NaCl Assay buffer. A “Substrate Working Solution” was made immediately before addition to the assay plate by adding 200 μL of the above “Substrate Master Solution” to a pre-warmed (37° C.) mixture of 1.46 mL of HEPES/NaCl Assay buffer and 340 μL of 1M CaCl2).
For additional description of this assay, please see Robert, S. et al. ‘Is thrombin generation the new rapid, reliable and relevant pharmacological tool for the development of anticoagulant drugs?’2009, Pharmacol Res 59:160-6 as well as Hemker, H. C. et al. ‘Calibrated automated thrombin generation measurement in clotting plasma.’ 2003, Pathophysiol Haemost Thromb 33:4-15.

Compound	microsomal CLint at 1 µM [1] [µL/min/mg]	EC50 (thrombin) [µM]
O=C(O)Cn1cccc(-c2cc(NCc3ccc(Cl)s3)[nH]n2)c1=O [Compound 3, 2-[3-(5-{[(5-chlorothiophen-2-yl)methyl]amino}-1H-pyrazol-3-yl)-2-oxo-1,2-dihydropyridin-1-yl]acetic acid]	≤ 5	> 100
CC(C)(C)C(=O)n1nc(-c2cccn(CC(=O)O)c2=O)cc1NCc1ccc(Cl)s1 [Compound 4, 2-[3-(5-{[(5-chlorothiophen-2-yl)methyl]amino}-1-(2,2-dimethylpropanoyl)-1H-pyrazol-3-yl)-2-oxo-1,2-dihydropyridin-1-yl]acetic acid]	≤ 5	2.8 to 6.2
CC(C)(C)C(=O)n1nc(-c2cccn(CCC(=O)O)c2=O)cc1NCc1ccc(Cl)s1 [Compound 1, 3-[3-(5-{[(5-chlorothiophen-2-yl)methyl]amino}-1-(2,2-dimethylpropanoyl)-1H-pyrazol-3-yl)-2-oxo-1,2-dihydropyridin-1-yl]propanoic acid]	5 to 11	0.93 to 1.7
O=C(O)CCn1cccc(-c2cc(NCc3ccc(Cl)s3)[nH]n2)c1=O [Compound 2, 3-[3-(5-{[(5-chlorothiophen-2-yl)methyl]amino}-1H-pyrazol-3-yl)-2-oxo-1,2-dihydropyridin-1-yl]propanoic acid]	≤ 5	> 100
CC(C)(C)C(=O)n1nc(-c2cccn(CCCC(=O)O)c2=O)cc1NCc1ccc(Cl)s1 [Compound 5, 4-[3-(5-{[(5-chlorothiophen-2-yl)methyl]amino}-1-(2,2-dimethylpropanoyl)-1H-pyrazol-3-yl)-2-oxo-1,2-dihydropyridin-1-yl]butanoic acid]	29	1.4
O=C(O)CCn1cccc(-c2cc(NCc3ccc(Cl)s3)n(C(=O)c3ccoc3)n2)c1=O [Compound 12, 3-[3-(5-{[(5-chlorothiophen-2-yl)methyl]amino}-1-(furan-3-carbonyl)-1H-pyrazol-3-yl)-2-oxo-1,2-dihydropyridin-1-yl]propanoic acid]	≤ 5	1.4 to 2.1

The next lines start with the values.

microsomal CLint at 1 µM [1] [µL/min/mg]	EC50 (thrombin) [µM]	Compound
11	0.43	CC(C)(N)Cn1cccc(-c2cc(NCc3ccc(Cl)s3)n(C(=O)c3ccoc3)n2)c1=O [Compound 9, 1-(2-amino-2-methylpropyl)-3-(5-{[(5-chlorothiophen-2-yl)methyl]amino}-1-(furan-3-carbonyl)-1H-pyrazol-3-yl)-1,2-dihydropyridin-2-one]
31	0.96	CCC(C)(C)C(=O)n1nc(-c2cccn(CCC(=O)O)c2=O)cc1NCc1ccc(Cl)s1 [Compound 11, 3-[3-(5-{[(5-chlorothiophen-2-yl)methyl]amino}-1-(2,2-dimethylbutanoyl)-1H-pyrazol-3-yl)-2-oxo-1,2-dihydropyridin-1-yl]propanoic acid]
100	0.99	CC(C)(C)C(=O)n1nc(-c2cccn(CCC(N)=O)c2=O)cc1NCc1ccc(Cl)s1 [Compound 8, 3-[3-(5-{[(5-chlorothiophen-2-yl)methyl]amino}-1-(2,2-dimethylpropanoyl)-1H-pyrazol-3-yl)-2-oxo-1,2-dihydropyridin-1-yl]propanamide]
